{"source": "patent US8088916B2", "about": "“Hyaluronic acid-methotrexate conjugate” (priority 2004, dated 2012)", "key": {"[1]": {"tested_on": "mBSA-induced monoarthritis model", "test": "Suppressive effect on knee joint swelling in mBSA-induced monoarthritis model", "type": "in vivo, rat", "settings": "for AUC (% of control) (mean ± SEM): AUC of knee joint swelling to two weeks after induction, control = HA-treated group, 50 μL into right knee joint 7 and 1 day before and 7 days after induction", "experimental": "An in vivo synovitis-suppressing effect of each HA-MTX conjugate of the invention was assessed on the basis of a suppressive effect on knee joint swelling in a methylated bovine serum albumin (mBSA)-induced monoarthritis model of rat. Since the mBSA-induced arthritis model employed in this experimental example is widely used as an antigen-induced arthritis model, and known to develop synovitis (Sven E. Andersson, et al., The Journal of Rheumatology (1998) 25: 9, 1772-7), the in vivo knee joint swelling-suppressing effect observed in this model conceivably represents a synovitis-suppressing effect. The compounds of the invention suppressing synovitis in vivo are useful as therapeutic drugs for joint diseases accompanied by synovitis (RA, OA, and the like).\nThe animal used was the LEW/Crj rat (6-week old male, from Charles River Laboratories Japan, Inc.). Into the flank of the rat was subcutaneously injected 0.5 mL of an emulsion prepared from a 2 mg/mL mBSA (Calbiochem) aqueous solution and an equal amount of Freund's complete adjuvant (Difco) 21 and 14 days before inducing arthritis. The arthritis was induced by administering 50 μL of a 2 mg/mL mBSA aqueous solution into the right knee joint. The left knee joint was untreated, and served as control in each individual. Each test substance (sterile aqueous solution) and the control drug hyaluronic acid were each administered into the right knee joint in an amount of 50 μL 7 and 1 day before and 7 days after inducing arthritis.\nThe determination of knee joint swelling involved measuring the widths of both knee joints with calipers to define the left/right difference (right knee diameter-left knee diameter) as a knee joint swelling. The width of each knee joint was measured at a frequency of twice a week from immediately before inducing arthritis to two weeks later to calculate AUC (an abbreviation for Area Under the Curve; here, it means an area under a curve with time for the joint swelling) from the transition thereof with time. At each measurement, the mean and standard deviation of AUC were calculated to perform an unpaired t-test between each test substance-treated group and the HA-treated group, and significant difference was judged to be present if the probability level is less than 5%. Statistical analysis used SAS version 6.12 (SAS Institute Japan). In addition, the AUC of each test substance was calculated, using that in the HA-treated group as a control, as a relative value (% of control) therefor.\nTo verify the usefulness of the HA-MTX conjugate of the invention, the suppressive effect on joint swelling was compared, in accordance with the method of Example 3, among: 1) a group treated with the HA-MTX conjugate (sterile aqueous solution) prepared in Example 2-2; 2) a group treated with a solution containing MTX of an amount equal to that of MTX contained in the HA-MTX conjugate; and 3) a group of treated with a mixture (HA+MTX) of MTX and hyaluronic acid (HA) of amounts equal to those contained in the conjugate. The transition of knee joint swelling with time in this test is shown in FIG. 2, and the AUC thereof in FIG. 3."}, "[2]": {"tested_on": "human synovial cells (HFLS)", "test": "Anti-proliferative effect on synovial cells stimulated by TNF-α ([3H]-deoxyuridine uptake)", "type": "cell-based", "settings": "TNF-α 10 ng/mL, 5 days culture, concentration calculated as MTX from conjugation rate", "description": "An effect of the HA-MTX conjugates of the invention on cell proliferation induced by TNF-α stimulation was examined using human synovial cells (HFLS). The main lesion in rheumatoid arthritis (RA) occurs in the synovial tissue, and, as one of the features, it is known that synovial cells abnormally proliferate to form a granulation tissue (pannus) and thereby destroy the cartilage and bone of the joint. Secondary synovitis is also observed in osteoarthritis (OA). […] Thus, a compound inhibiting the proliferation of synovial cells stimulated by the inflammatory cytokine TNF-α suppresses the progression of the pathologic conditions of RA and OA and becomes a therapeutic drug therefor. The sterile aqueous solutions of the HA-MTX conjugates in Example 2 (Table 2) were used as test substances. HFLS (CA40405, Lot Nos. 1413 and 1493) was purchased from Cell Applications Ins. for use. HFLS was seeded at 5,000 cells/well on a 96-well plate (Falcon) and cultured for 3 hours in Iscove's modified Dulbecco's medium (IMDM) containing 5% FBS and 1× Antibiotic-Antimycotic (GIBOC). After cellular attachment, TNF-α (final concentration: 10 ng/mL) and each HA-MTX conjugate at each concentration was added, followed by cultivation for 5 days. Two days before the end of culture, was added 37 kBq/well of [^3H]-deoxyuridine in the cells (MORAVEK), followed by determining the uptake quantity (radioactivity) of [^3H]-deoxyuridine using a scintillation counter. Cells were recovered by unsticking them with 0.05% trypsin-0.2% EDTA. Radioactivity determined in each of the experiments with each test substance was calculated as a relative value (% of control), using, as control, radioactivity in the group of cells cultured without adding any test substance. […] GraphPad Prism 3.02)."}}, "data": [{"compound": "MTX-α-PhePhe-NHC2H4NH-HA [Example 2-3]", "values": [{"measurement": "AUC (% of control) (mean ± SEM)", "setting": "[1]", "result": "76.2 ± 7.7 % of control"}]}, {"compound": "MTX-γ-PhePhe-NHC10H20O3NH-HA [Example 2-39]", "values": [{"measurement": "IC50", "setting": "[2]", "result": 3.2, "unit": "µM"}]}, {"compound": "MTX-α-AsnPhePhe-NHC10H20O3NH-HA [Example 2-47]", "values": [{"measurement": "IC50", "setting": "[2]", "result": 1.1, "unit": "µM"}, {"measurement": "AUC (% of control) (mean ± SEM)", "setting": "[1]", "result": "42.1 ± 6.3 % of control"}]}, {"compound": "MTX-α-PheβAla-NHC10H20O3NH-HA [Example 2-24]", "values": [{"measurement": "IC50", "setting": "[2]", "result": 3.5, "unit": "µM"}]}, {"compound": "MTX-α-PheGly-NHC10H20O3NH-HA [Example 2-15]", "values": [{"measurement": "IC50", "setting": "[2]", "result": 0.48, "unit": "µM"}]}, {"compound": "MTX-α-PhePhe-NHC2H4NH-HA [Example 2-2′]", "values": [{"measurement": "IC50", "setting": "[2]", "result": 0.72, "unit": "µM"}, {"measurement": "AUC (% of control) (mean ± SEM)", "setting": "[1]", "result": "65.5 ± 7.5 % of control"}]}, {"compound": "MTX-α-Leu-NHC10H20O3NH-HA [Example 2-34]", "values": [{"measurement": "IC50", "setting": "[2]", "result": 3.6, "unit": "µM"}]}, {"compound": "MTX-γ-PheGly-NHC10H20O3NH-HA [Example 2-42]", "values": [{"measurement": "IC50", "setting": "[2]", "result": 14, "unit": "µM"}]}, {"compound": "MTX-α-PhePhe-NHC2H4NH-HA [Example 2-6]", "values": [{"measurement": "IC50", "setting": "[2]", "result": 0.091, "unit": "µM"}, {"measurement": "AUC (% of control) (mean ± SEM)", "setting": "[1]", "result": "41.6 ± 7.6 % of control"}]}, {"compound": "MTX-α-βAla-NHC10H20O3NH-HA [Example 2-38]", "values": [{"measurement": "AUC (% of control) (mean ± SEM)", "setting": "[1]", "result": "69.3 ± 4.2 % of control"}]}, {"compound": "MTX-α-PhePhe-NHC2H4NH-HA [Example 2-5]", "values": [{"measurement": "IC50", "setting": "[2]", "result": 1.1, "unit": "µM"}, {"measurement": "AUC (% of control) (mean ± SEM)", "setting": "[1]", "result": "51.7 ± 3.8 % of control"}]}, {"compound": "MTX-α-PhePhe-NHC2H4NH-HA [Example 2-4]", "values": [{"measurement": "IC50", "setting": "[2]", "result": 11, "unit": "µM"}, {"measurement": "AUC (% of control) (mean ± SEM)", "setting": "[1]", "result": "69.0 ± 6.5 % of control"}]}, {"compound": "MTX-α-Tyr-NHC10H20O3NH-HA [Example 2-31]", "values": [{"measurement": "IC50", "setting": "[2]", "result": 7, "unit": "µM"}, {"measurement": "AUC (% of control) (mean ± SEM)", "setting": "[1]", "result": "67.7 ± 6.2 % of control"}]}, {"compound": "MTX-α-PhePhe-NHC10H20O3NH-HA [Example 2-49]", "values": [{"measurement": "IC50", "setting": "[2]", "result": 13, "unit": "µM"}]}, {"compound": "CN(Cc1cnc2nc(N)nc(N)c2n1)c1ccc(C(=O)N[C@@H](CCC(=O)O)C(=O)O)cc1", "note": "[MTX alone, methotrexate]", "values": [{"measurement": "IC50", "setting": "[2]", "result": 0.055, "unit": "µM"}, {"measurement": "suppressive effect on joint swelling / alleviating effect on synovitis", "setting": "[1]; Experimental Example 4: conjugate vs equal amount of MTX vs mixture HA+MTX, FIGS. 2 and 3", "result": "neither MTX alone nor the mixture of HA and MTX had a sufficient alleviating effect on synovitis"}]}, {"compound": "MTX-α-PheβAla-NHC2H4NH-HA [Example 2-25]", "values": [{"measurement": "IC50", "setting": "[2]", "result": 0.29, "unit": "µM"}]}, {"compound": "MTX-α-Glu-NHC2H4NH-HA [Example 2-30]", "values": [{"measurement": "IC50", "setting": "[2]", "result": 54, "unit": "µM"}, {"measurement": "AUC (% of control) (mean ± SEM)", "setting": "[1]", "result": "58.3 ± 7.4 % of control"}]}, {"compound": "MTX-α-PhePhe-NHC10H20O2NH-HA [Example 2-9]", "values": [{"measurement": "IC50", "setting": "[2]", "result": 1.3, "unit": "µM"}]}, {"compound": "MTX-α-PheGly-NHC6H12O2NH-HA [Example 2-21]", "values": [{"measurement": "IC50", "setting": "[2]", "result": 0.83, "unit": "µM"}, {"measurement": "AUC (% of control) (mean ± SEM)", "setting": "[1]", "result": "47.4 ± 8.8 % of control"}]}, {"compound": "MTX-α-PhePro-NHC10H20O3NH-HA [Example 2-23]", "values": [{"measurement": "IC50", "setting": "[2]", "result": 12, "unit": "µM"}]}, {"compound": "MTX-α-PheGly-NHC10H20O3NH-HA [Example 2-17]", "values": [{"measurement": "IC50", "setting": "[2]", "result": 13, "unit": "µM"}, {"measurement": "AUC (% of control) (mean ± SEM)", "setting": "[1]", "result": "56.1 ± 8.2 % of control"}]}, {"compound": "MTX-α-PhePhe-NHC4H80NH-HA [Example 2-12]", "values": [{"measurement": "IC50", "setting": "[2]", "result": 0.3, "unit": "µM"}]}, {"compound": "MTX-α-PheGly-NHC10H20O2NH-HA [Example 2-19]", "values": [{"measurement": "IC50", "setting": "[2]", "result": 5.4, "unit": "µM"}]}, {"compound": "MTX-α-PhePhe-NHC2H4NH-HA [Example 2-7]", "values": [{"measurement": "AUC (% of control) (mean ± SEM)", "setting": "[1]", "result": "46.5 ± 4.8 % of control"}]}, {"compound": "MTX-α-Trp-NHC10H20O3NH-HA [Example 2-32]", "values": [{"measurement": "IC50", "setting": "[2]", "result": 4.7, "unit": "µM"}]}, {"compound": "MTX-α-Ile-NHC2H4NH-HA [Example 2-28]", "values": [{"measurement": "IC50", "setting": "[2]", "result": 12, "unit": "µM"}, {"measurement": "AUC (% of control) (mean ± SEM)", "setting": "[1]", "result": "63.5 ± 4.7 % of control"}]}, {"compound": "MTX-α-His-NHC10H20O3NH-HA [Example 2-36]", "values": [{"measurement": "IC50", "setting": "[2]", "result": 17, "unit": "µM"}]}, {"compound": "MTX-α-Ser-NHC10H20O3NH-HA [Example 2-33]", "values": [{"measurement": "IC50", "setting": "[2]", "result": 36, "unit": "µM"}]}, {"compound": "MTX-α-PhePhe-NHC8H16O2NH-HA [Example 2-10]", "values": [{"measurement": "IC50", "setting": "[2]", "result": 1.2, "unit": "µM"}, {"measurement": "AUC (% of control) (mean ± SEM)", "setting": "[1]", "result": "63.7 ± 9.1 % of control"}]}, {"compound": "MTX-α-PheGly-NHC4H8ONH-HA [Example 2-22]", "values": [{"measurement": "IC50", "setting": "[2]", "result": 3, "unit": "µM"}]}, {"compound": "MTX-α-Phe-NHC10H20O3NH-HA [Example 2-26]", "values": [{"measurement": "IC50", "setting": "[2]", "result": 1.7, "unit": "µM"}]}, {"compound": "MTX-γ-PhePhe-NHC4H8ONH-HA [Example 2-41]", "values": [{"measurement": "AUC (% of control) (mean ± SEM)", "setting": "[1]", "result": "67.1 ± 8.3 % of control"}]}, {"compound": "MTX-α-Val-NHC10H20O3NH-HA [Example 2-35]", "values": [{"measurement": "IC50", "setting": "[2]", "result": 11, "unit": "µM"}]}, {"compound": "MTX-α-PheGly-NHC10H20O3NH-HA [Example 2-16]", "values": [{"measurement": "IC50", "setting": "[2]", "result": 13, "unit": "µM"}]}, {"compound": "MTX-α-PhePhe-NHC6H12O2NH-HA [Example 2-11]", "values": [{"measurement": "IC50", "setting": "[2]", "result": 0.25, "unit": "µM"}]}]}
